Experimental data: ChEMBL document CHEMBL1126161, “3,4-Dihydroquinolin-2(1H)-ones as combined inhibitors of thromboxane A2 synthase and cAMP phosphodiesterase” (J Med Chem, 1992)
“And” between values parts separate entries of the source, which are not always exact repeats. Equal values may be shown once.

Columns and labels:
Thromboxane-A synthase = target: T1, Thromboxane-A synthase (Homo sapiens, UniProt P24557); experiment: Compound was evaluated for the inhibition of human blood platelet, thromboxane A2 synthase
T1 sequence (P24557 whole entry): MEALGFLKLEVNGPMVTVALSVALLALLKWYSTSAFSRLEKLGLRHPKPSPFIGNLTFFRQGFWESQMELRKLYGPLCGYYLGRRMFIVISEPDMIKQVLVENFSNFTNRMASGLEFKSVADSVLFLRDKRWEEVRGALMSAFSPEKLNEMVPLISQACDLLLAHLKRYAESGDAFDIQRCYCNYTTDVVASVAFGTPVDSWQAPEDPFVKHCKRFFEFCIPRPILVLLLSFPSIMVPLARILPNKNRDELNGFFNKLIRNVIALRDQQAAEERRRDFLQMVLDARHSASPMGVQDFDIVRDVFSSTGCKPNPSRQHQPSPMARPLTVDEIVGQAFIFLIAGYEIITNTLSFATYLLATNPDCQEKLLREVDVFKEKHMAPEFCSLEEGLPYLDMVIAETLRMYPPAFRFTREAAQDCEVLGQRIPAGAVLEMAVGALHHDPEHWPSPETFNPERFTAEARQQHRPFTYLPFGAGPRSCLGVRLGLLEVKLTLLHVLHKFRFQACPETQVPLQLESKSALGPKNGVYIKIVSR

Rattus norvegicus [1] = experiment: Antihypertensive activity in conscious spontaneously hypertensive rat (SHR), percent change in Systolic blood pressure (SBP) after 2 hr at 10 mg/kg peroral dose; assay type: functional; details: route oral
Rattus norvegicus [2] = experiment: Antihypertensive activity in conscious spontaneously hypertensive rat (SHR), percent change in heart rate (beats/min) after 4 hr at 10 mg/kg peroral dose; assay type: functional; details: route oral
Homo sapiens [3] = organism: Homo sapiens; experiment: In vitro inhibition of ADP-induced aggregation of human PRP in the presence of pig aortal microsomes (PAM).; assay type: functional
Rattus norvegicus [4] = experiment: Antihypertensive activity in conscious spontaneously hypertensive rat (SHR), percent change in Systolic blood pressure (SBP) after 1 hr; assay type: functional; design: concentration or dose not given beside the values
Rattus norvegicus [5] = experiment: Antihypertensive activity in conscious spontaneously hypertensive rat (SHR), percent change in heart rate (beats/min) after 2 hr at 10 mg/kg peroral dose; assay type: functional; details: route oral
Homo sapiens [6] = organism: Homo sapiens; experiment: Ratio of IC50(w/oPAM)/IC50(w/PAM); assay type: functional
Homo sapiens [7] = organism: Homo sapiens; experiment: Inhibition of ADP-induced aggregation of human PRP in the absence of pig aortal microsomes (PAM); assay type: functional
Rattus norvegicus [8] = experiment: Antihypertensive activity in conscious spontaneously hypertensive rat (SHR), percent change in Systolic blood pressure (SBP) after 1 hr at 10 mg/kg peroral dose; assay type: functional; details: route oral
Rattus norvegicus [9] = experiment: Antihypertensive activity in conscious spontaneously hypertensive rat (SHR), percent change in Systolic blood pressure (SBP) after 4 hr at 10 mg/kg peroral dose; assay type: functional; details: route oral
Rattus norvegicus [10] = experiment: Antihypertensive activity in conscious spontaneously hypertensive rat (SHR), percent change in heart rate (beats/min) after 1 hr at 10 mg/kg peroral dose; assay type: functional; details: route oral

| Structure (SMILES) | IC50 (Homo sapiens [3]) [µM] | IC50 (Homo sapiens [7]) [µM] | Change systolic BP (Rattus norvegicus [1]) [%] | Change in heart rate (Rattus norvegicus [5]) [%] | also measured |
| --- | --- | --- | --- | --- | --- |
| O=c1ccc2cc(/C=C/n3ccnc3)ccc2[nH]1 |  |  |  |  | IC50 (Thromboxane-A synthase): 0.38 µM |
| O=C1CCc2cc(/C(=C/c3cccnc3)c3ccccc3)ccc2N1 | 170 |  |  |  |  |
| Cc1[nH]c(=O)c(C#N)cc1-c1ccncc1 [MILRINONE] |  |  | -54 | 36 | Change systolic BP (Rattus norvegicus [8]): -65%; Change systolic BP (Rattus norvegicus [9]): -47%; Change in heart rate (Rattus norvegicus [2]): 45%; Change in heart rate (Rattus norvegicus [10]): 11% |

Second part, led by results:

| IC50 (Homo sapiens [3]) [µM] | IC50 (Homo sapiens [7]) [µM] | Structure (SMILES) | Change systolic BP (Rattus norvegicus [1]) [%] | Change in heart rate (Rattus norvegicus [5]) [%] | also measured |
| --- | --- | --- | --- | --- | --- |
| 2.2 | 90 | C/C(=C\c1cccnc1)c1ccc2c(c1)CCC(=O)N2 | -15 | 20 | Change in heart rate (Rattus norvegicus [2]; 10 mg/kg): 12% and 25%; Change systolic BP (Rattus norvegicus [4]): -19% and -16%; Ratio (Homo sapiens [6]): 41 |
| 35 |  | CC(Cc1cccnc1)c1ccc2c(c1)CCC(=O)N2 (configuration not stated) |  |  |  |
| 8.3 | 140 | O=C1CCc2cc(CCn3ccnc3)ccc2N1 | -2 | 34 | Change systolic BP (Rattus norvegicus [9]): -13%; Change in heart rate (Rattus norvegicus [2]): 12%; Change systolic BP (Rattus norvegicus [4]): -14%; Change in heart rate (Rattus norvegicus [10]): 17%; Ratio (Homo sapiens [6]): 17 |
| 2.5 | 37 | CCCCCC(c1ccc2c(c1)CCC(=O)N2)n1ccnc1 (configuration not stated) |  |  |  |
